Results as given in patent US20040209915A1, “Library of biphenyl derivatives” (priority 2003, published 2004).

Experiments:
M3 muscarinic receptor = target: T1, M3 muscarinic receptor (Homo sapiens, UniProt P20309); assay: Radioligand binding assay for muscarinic receptors; conditions: displacement of [3H]-NMS, CHO cell membranes
T1 construct: expressed in transfected cells
Protocol: CHO cell lines stably expressing cloned human hM1, hM2, hM3 and hM4 muscarinic receptor subtypes, respectively, were grown to near confluency in HAM's F-12 media supplemented with 10% FBS and 250 μg/mL Geneticin. The cells were grown in a 5% CO2, 37° C. incubator and lifted with 2 mM EDTA in dPBS. […] For membrane preparation, cell pellets were resuspended in lysis buffer and homogenized with a Polytron PT-2100 tissue disrupter (Kinematica AG; 20 seconds×2 bursts). Crude membranes were centrifuged at 40,000×g for 15 minutes at 4° C. The membrane pellet was then resuspended with resuspension buffer and homogenized again with the Polytron tissue disrupter.

[1] = target: T2, human β2 adrenergic receptor (Homo sapiens, UniProt P07550); assay: Whole-cell cAMP Flashplate assay in CHO cell lines heterologously expressing human β2 adrenergic receptor; format: cell-based; conditions: CHO-K1 cells
T2 construct: expressed in transfected cells
Protocol: Cells were rinsed with PBS and detached in dPBS (Dulbecco's Phosphate Buffered Saline, without CaCl2 and MgCl2) containing 2 mM EDTA or Trypsin-EDTA solution (0.05% trypsin/0.53 mM EDTA). […] About 60,000 to 80,000 cells per well were used in this assay. Test compounds (10 mM in DMSO) were diluted into PBS containing 0.1% BSA in Beckman Biomek-2000 and tested at 11 different concentrations ranging from 100 μM to 1 pM.

[2] = target: T2, human β2 adrenergic receptor; assay: Whole-cell cAMP Flashplate assay with lung epithelial cell line (BEAS-2B) endogenously expressing human β2 adrenergic receptor; format: cell-based; conditions: BEAS-2B cells
[3] = target: T2, human β2 adrenergic receptor; assay: Radioligand binding assay for human β2 adrenergic receptor; conditions: displacement of [3H]-dihydroalprenolol, CHO cell membranes

T2 sequence (P07550 whole entry): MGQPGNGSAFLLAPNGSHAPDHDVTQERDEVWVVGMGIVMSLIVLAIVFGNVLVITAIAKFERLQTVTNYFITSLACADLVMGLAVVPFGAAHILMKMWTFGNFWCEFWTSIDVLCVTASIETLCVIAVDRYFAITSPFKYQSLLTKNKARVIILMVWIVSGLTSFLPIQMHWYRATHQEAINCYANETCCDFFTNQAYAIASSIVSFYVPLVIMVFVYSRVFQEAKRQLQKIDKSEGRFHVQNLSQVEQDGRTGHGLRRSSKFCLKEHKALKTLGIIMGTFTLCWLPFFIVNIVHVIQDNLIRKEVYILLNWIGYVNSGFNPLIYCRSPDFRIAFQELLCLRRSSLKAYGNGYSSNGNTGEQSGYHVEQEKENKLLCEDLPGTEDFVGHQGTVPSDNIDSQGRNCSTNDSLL
T1 sequence (P20309 whole entry): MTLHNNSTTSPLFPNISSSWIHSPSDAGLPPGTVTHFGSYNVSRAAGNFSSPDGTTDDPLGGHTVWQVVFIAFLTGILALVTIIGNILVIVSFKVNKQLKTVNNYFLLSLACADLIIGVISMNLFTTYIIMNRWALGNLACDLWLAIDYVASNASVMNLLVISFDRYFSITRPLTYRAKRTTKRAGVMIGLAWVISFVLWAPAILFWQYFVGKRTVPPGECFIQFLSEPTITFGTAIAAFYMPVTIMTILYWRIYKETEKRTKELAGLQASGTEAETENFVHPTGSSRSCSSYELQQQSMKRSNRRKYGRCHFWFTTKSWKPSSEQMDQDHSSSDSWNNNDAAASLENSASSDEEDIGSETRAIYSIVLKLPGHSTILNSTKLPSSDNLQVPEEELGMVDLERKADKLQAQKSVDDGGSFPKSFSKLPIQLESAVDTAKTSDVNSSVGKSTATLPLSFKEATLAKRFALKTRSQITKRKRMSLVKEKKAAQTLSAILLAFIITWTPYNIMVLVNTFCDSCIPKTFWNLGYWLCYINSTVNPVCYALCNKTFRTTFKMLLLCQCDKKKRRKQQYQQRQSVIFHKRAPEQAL

O=C(CCN1CCC(OC(=O)Nc2ccccc2-c2ccccc2)CC1)NCCCCCNC[C@H](O)c1ccc(O)c2[nH]c(=O)ccc12 [Example 6, Biphenyl-2-ylcarbamic Acid 1-(2-{5-[(R)-2-Hydroxy-2-(8-hydroxy-2-oxo-1,2-dihydroquinolin-5-yl)ethylamino]pentylcarbamoyl}ethyl)piperidin-4-yl Ester, Ditrifluoroacetate]
< 10 nM: Ki (M3 muscarinic receptor) | EC50 [1] | EC50 [2] | Ki [3]
